≈ marks a conversion by molar mass, not a printed value.
How the values were obtained:
In vivo PK (I.V./P.O.) = assay: In vivo PK (I.V./P.O.); parameters: species or system mice
Protocol: Before the studies above were initiated, congenic SOD1 G93A mice were dosed with 50 mg/kg of compound no. 1 and compound no. 2 via I.P. injection to rule out any toxicity issues prior to initiating the efficacy study (FIG. 4A-C).
The experiments will involve the administration of compounds to 5-6 week old CD1 male mice. Mice are dosed by either a 1 mg/kg IV bolus or 5 mg/kg oral gavage. Blood samples are collected by cardiac puncture at 0, 0.25, 0.5, 1, 2, 4, 6, 8, 12, and 24 hrs. There will be three mice per time point. Plasma concentration over time will be determined by LC/MS from which the standard PK parameters of clearance, volume of distribution, t1/2 and % F can be derived using WinNoLin software (Pharsight Inc.). This will require a total of 60 mice per compound. Plasma will be analyzed by reverse phase chromatography with MS/MS detection operating in the positive ion mode using multiple reaction monitoring using an internal standard and Applied Biosystems Analyst 1.4 software. Peak time (when maximum plasma drug concentration occurs), peak drug level [approximate maximum concentrations of drug in plasma (Cmax)] and t1/2 for drug elimination will be estimated for each tested compound. Bioavailability (F) will be calculated from the ratio of AUCPO/AUCIV and expressed as a percentage. To determine levels in brain, six additional mice will be dosed with 1 mg/kg I.V. and sacrificed at 0.25 and 1 hr. Brain and spinal cord samples will be collected at these two time points, quick frozen in an ice box and kept at −75±15° C. All samples will be weighed and homogenized with phosphate buffered saline (PBS) by brain weight (g) to PBS volume (mL) ratio 1:3 before analysis. The actual concentration is the detected value multiplied by the dilution factor.

Solubility = format: physicochemical; conditions: buffer, pH 7.4, aqueous buffer, kinetic from dmso stock
Text: A standard panel of in vitro ADME assays will be utilized to assess drug-like properties of compounds and to inform subsequent in vivo PK studies. These assays include: (a) Permeability: MDCK (Madin Darby Canine Kidney) cells transfected with the MDR1 gene encoding for the multi-drug resistant transporter (Pgp) will be utilized to determine a compound's ability to permeate the membrane in apical to basolateral (A-B) and basolateral to apical (B-A) directions. The derived apparent permeability coefficient (Papp) provides an estimate of passive permeability; a ratio of Papp in the B-A/A-B direction gives an estimate of transporter efflux; (b) Solubility: Kinetic solubility is an important parameter for accurate determinations of the dose response. This is estimated using the shake flask method with a μSol Explorer (PION, Billerica, Mass.) at pH 7.4. Compounds are added as a DMSO solution to buffer. The average of two determinations at pH 7.4 will be reported. Solubility at pH 7.4 is relevant for in vitro assays; (c) Metabolic Stability: The potential for a high metabolic clearance compound is estimated using a liver microsome assay. […] The disappearance of the parent molecule is measured by liquid chromatography/mass spectroscopy (LC/MS) detection. […]

half-life (In vivo PK (I.V./P.O.); male, CD1, mouse, plasma, iv, 1 mg/kg, I.V., read-out: I.V. t1/2 (converted)): 1.4 h
orally bioavailable (In vivo PK (I.V./P.O.); oral): 16%
solubility (Solubility): 56 µM (≈ 16.7 µg/mL)
Compound: O=C(O)c1cccc(-c2cnc(Nc3ccccc3F)o2)c1 [Compound 40, 3-(2-((2-Fluorophenyl)amino)oxazol-5-yl)benzoic Acid]
